In PubChem BioAssay AID1902 (Broad Institute, 2009):
Active and inactive are the calls of the source.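 The calls were made as follows: active = EC50 no more than a set limit of log units above the highest dose; inactive = the rest.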

The molecules below were run against S. pyogenes SKKanGAS, kanamycin survival, BacTiterGlo, 6 h (assay: S. pyogenes SKKanGAS kanamycin growth inhibitors – SKKanGAS strain, luminescence, dose confirmation, streptokinase promoter inhibitor project, dose response (AID 1902);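 also: lower survival reflects blocked streptokinase promoter driving kanamycin resistance gene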).
Work on CCCc1ccc(-c2cc(N)n[nH]2)cc1 yielded an EC50 of 4.89 µM.
COc1ccc(CN(C)S(=O)(=O)c2ccc3c(c2)OCCO3)cc1 was tested, and the EC50 was > 15 µM (inactive).
Cc1ccc(C)c(S(=O)(=O)N2CCN(Cc3ccc(O)c4ncccc34)CC2)c1 gave an EC50 of 2.8 µM.
Molecule CC1=NN(c2ccccc2)C(=O)/C1=C/c1c(O)n(-c2ccc(F)c(Cl)c2)[nH]c1=O has an EC50 of 3.61 µM.
Work on O=c1c2c(nc3c(-c4ccc(Cl)cc4)c[nH]n13)CCCC2 yielded an EC50 of 4.55 µM.
Work on C=C(C)[C@@H]1CCC2(C(=O)O)CC[C@]3(C)[C@H](CC[C@@H]4[C@@]5(C)CCC(=O)C(C)(C)[C@@H]5CC[C@]43C)[C@@H]12 (stereo partly drawn) yielded an EC50 of 1.85 µM.
Molecule COc1ccc(Nc2nc(NN)nc(Nc3ccc(OC)cc3)n2)cc1 has an EC50 of 6.02 µM.
Cc1ccc2c(=O)[nH]c(Nc3nc(C)cc(-c4ccccc4)n3)nc2c1 was tested, and the EC50 was 3.37 µM.
In the case of O=Nc1c(-c2c(O)[nH]c3cc(Br)ccc23)[nH]c2ccccc12, the EC50 is reported as 2.95 µM.
In the case of Cc1ccc(C(=O)NC(=S)NNC(=O)c2cccc([N+](=O)[O-])c2)cc1, the EC50 is reported as 1.69 µM.
Cc1cc(C(=O)N/N=C/c2cc(Cl)cc([N+](=O)[O-])c2O)c2ccccc2n1 gave an EC50 of 2.61 µM.
Work on Cc1nn(Cc2ccc(C(=O)Nc3nc4c(C)cccc4s3)o2)c(C)c1Br yielded an EC50 of 2.85 µM.
O=C(CSc1nnc(CNC(=O)c2ccc(F)cc2)o1)NCc1ccccc1Cl was tested, and the EC50 was > 15 µM (inactive).
For O=C(/C=C/c1ccccc1)NC(NC(=S)Nc1ccc(Cl)cc1)C(Cl)(Cl)Cl (stereo not drawn), the EC50 was 4.16 µM.
For CCOC(=O)c1c(NC(=O)CCS(=O)(=O)c2ccccc2)sc2c1CCN(C)C2, the EC50 was > 15 µM (inactive).
With O=c1c2ccccc2sn1-c1cc(S(=O)(=O)N2CCOCC2)ccc1N1CCOCC1 the EC50 was 13.3 µM.
Oc1cccc(-c2nc3ccc4ccccc4c3c3c2CCC3)c1 was tested, and the EC50 was 8.4 µM.
For Cc1nn(C)c(Cl)c1CN1CCCC(C(=O)Nc2ccc(-c3cscn3)cc2)C1 (stereo not drawn), the EC50 was > 15 µM (inactive).
